Measured values taken from patent EP3597653A1, “CYCLIC INHIBITORS OF HEPATITIS B VIRUS” (IRBM S.P.A., priority 2018, dated 2020).

Each molecule was assayed on HBV (assay: HBV inhibition assay in HepAD38 cells (extracellular HBV DNA by direct qPCR)). Settings: Hepatitis B virus, 8-point dose-response curve, 96 hours, read-out: HBV inh EC50.
Format: cell-based
Description: HepAD38 cell line (Ladner et al., Antimicrob Agents Chemother, 1997, 41, 1715-20) was used for HBV inhibition assays. HepAD38 is a subclone, derived from Hepatoblastoma cell line HepG2 (ATCC® Number: HB-8065™), that expresses HBV genome under the control of a tetracycline-responsive promoter in a TET-OFF system: addition of tetracycline suppresses HBV replication, while its removal switches on the process allowing HBV viral particles release in the cell supernatant. HepAD38 cell line is maintained in DMEM/F12, supplemented with 10% of fetal bovine serum, 1% of glutamine, 1% of penicillin/streptomycin, 0.4 mg/ml G418 and 0,3 ug/ml tetracycline. For the HBV inhibition assay, doxycycline-free medium is used in order to allow virion production.
HBV inhibition activity in vitro was performed in 96 multiwell plates. During the initial (primary) screening compounds were first tested in triplicates at concentrations of 0.1µM, 0.5µM amd 1µM. For selected compounds, an 8-point dose-response curve can be obtained using 1:2 serial dilutions (starting from 2.5 µM, 1.25µM or 0.4 µM, depending on the degree of inhibition observed during the primary screening). From the dose-response curves, half maximal effective concentration (EC50) can be calculated (see also below).
In more detail, compounds - typically dissolved in DMSO stock solutions - are diluted to 2x the final desired concentration in 100 µl of the above medium (without doxycycline) and plated in three replicates in the 96-well plates.
Simultaneously, HepAD38 cells - extensively pre-washed in tetracycline-free medium in order to induce HBV production - are suspended at 2*10^4 cells in 100 µl of tetracycline-free medium and added to each well of the plate, to yield a final assay volume of 200 µl DMSO - used for stock solutions and compounds dilutions - which is always present in the assays at a final concentration of 0.5%.
Plates are then incubated 96 hours at 37°C and then subjected to cell viability assay in order to define compounds cytotoxicity and to extracellular HBV quantification in order to evaluate antiviral activity of compounds. Cytotoxicity is assessed by a commercial fluorescence assay that measures the metabolic activity of cells, directly related to cell viability (Cell Titer Blue, Promega). Anti-HBV activity was evaluated by quantification of extracellular HBV DNA with direct qPCR. In particular, supernatant was collected and centrifuged for cell debris clarification, viral DNA was extracted from virions by addition of lysis buffer (1 mM 1,4-dithiothreitol, 0.2% sodium dodecyl sulphate) and incubated at 95°C for 10 min. Samples were then diluted 1:40 and real time PCR amplification was performed with SYBR green assay (Power SYBR™ Green PCR Master Mix-Thermo Fisher Scientific) and specific HBV primer (HBV-DF:5'-[…]-3' (SEQ ID No. 1), HBV-DR:5'-[…]-3' (SEQ ID No. 2)).
All HBV inhibition or antiviral activity data are typically reported in percent (%) relative to a non-treated reference sample. Excel and Graphpad Prism programs are typically used for data elaboration and EC50 calculation.

| SMILES | EC50 [µM] |
| --- | --- |
| O=C(Nc1cc(F)c(F)c(F)c1)c1ccc2c(c1)S(=O)(=O)NC(c1nccs1)N2 (stereo not drawn) [Example E49, 3-(thiazol-2-yl)-N-(3,4,5-trifluorophenyl)-3,4-dihydro-2H-benzo[e][1,2,4]thiadiazine-7-carboxamide 1,1-dioxide] | < 1 |
| O=C(Nc1cc(F)c(F)c(F)c1)c1cc2c(cc1F)NCNS2(=O)=O [Example E71, 6-fluoro-N-(3,4,5-trifluorophenyl)-3,4-dihydro-2H-benzo[e][1,2,4]thiadiazine-7-carboxamide 1,1-dioxide] | < 1 |
| O=C(Nc1cc(F)c(F)c(F)c1)c1cc(F)c2c(c1)S(=O)(=O)NCN2 [Example E72, 5-fluoro-N-(3,4,5-trifluorophenyl)-3,4-dihydro-2H-benzo[e][1,2,4]thiadiazine-7-carboxamide 1,1-dioxide] | > 1 |

Same assay, conditions: Hepatitis B virus, compound at 0.5 µM, 96 hours, relative to non-treated reference, read-out: Anti HBV Activity (conc µM)

| SMILES | inhibition at 0.5 µM [%] |
| --- | --- |
| O=C(Nc1cc(F)c(F)c(F)c1)c1ccc2c(c1)S(=O)(=O)NC(c1ncccn1)N2 (stereo not drawn) [Example E54, 3-(pyrimidin-2-yl)-N-(3,4,5-trifluorophenyl)-3,4-dihydro-2H-benzo[e][1,2,4]thiadiazine-7-carboxamide 1,1-dioxide] | > 50 |
| CC1(c2cnccn2)Nc2ccc(C(=O)Nc3cc(F)c(F)c(F)c3)cc2S(=O)(=O)N1 (stereo not drawn) [Example E55, 3-methyl-3-(pyrazin-2-yl)-N-(3,4,5-trifluorophenyl)-3,4-dihydro-2H-benzo[e][1,2,4]thiadiazine-7-carboxamide 1,1-dioxide] | > 50 |
| O=C(Nc1cc(F)c(F)c(F)c1)c1ccc2c(c1)S(=O)(=O)NC1(N2)C(=O)Nc2ncccc21 (stereo not drawn) [Example E57, 2'-oxo-N-(3,4,5-trifluorophenyl)-1',2'-dihydro-2H,4H-spiro[benzo[e][1,2,4]thiadiazine-3,3'-pyrrolo[2,3-b]pyridine]-7-carboxamide 1,1-dioxide] | > 50 |
| O=C(Nc1cc(F)c(F)c(F)c1)c1ccc2c(c1)S(=O)(=O)N([C@H]1CC[C@H](O)CC1)CN2 [Example E58, trans-2-(4-hydroxycyclohexyl)-N-(3,4,5-trifluorophenyl)-3,4-dihydro-2H-benzo[e][1,2,4]thiadiazine-7-carboxamide 1,1-dioxide] | < 50 |
| O=C(Nc1cc(F)c(F)c(F)c1)c1ccc2c(c1)S(=O)(=O)N([C@H]1CC[C@@H](O)CC1)CN2 [Example E59, cis-2-(4-hydroxycyclohexyl)-N-(3,4,5-trifluorophenyl)-3,4-dihydro-2H-benzo[e][1,2,4]thiadiazine-7-carboxamide 1,1-dioxide] | < 50 |
| O=C(Nc1cc(F)c(F)c(F)c1)c1ccc2c(c1)S(=O)(=O)N(C1CC1)CN2 [Example E60, 2-cyclopropyl-N-(3,4,5-trifluorophenyl)-3,4-dihydro-2H-benzo[e][1,2,4]thiadiazine-7-carboxamide 1,1-dioxide] | < 50 |
| O=C(Nc1cc(F)c(F)c(F)c1)c1ccc2c(c1)S(=O)(=O)N(C1CCNCC1)CN2 [Example E61, 2-(piperidin-4-yl)-N-(3,4,5-trifluorophenyl)-3,4-dihydro-2H-benzo[e][1,2,4]thiadiazine-7-carboxamide 1,1-dioxide] | < 50 |
| O=C(Nc1cc(F)c(F)c(F)c1)c1ccc2c(c1)S(=O)(=O)N1CCCC1N2 (stereo not drawn) [Example E64, N-(3,4,5-trifluorophenyl)-2,3,10,10a-tetrahydro-1H-benzo[e]pyrrolo[1,2-b][1,2,4]thiadiazine-7-carboxamide 5,5-dioxide] | < 50 |
| O=C(Nc1ccc(F)c(Cl)c1)c1ccc2c(c1)S(=O)(=O)NCN2 [Example E65, N-(3-chloro-4-fluorophenyl)-3,4-dihydro-2H-benzo[e][1,2,4]thiadiazine-7-carboxamide 1,1-dioxide] | > 50 |

Same assay, conditions: Hepatitis B virus, compound at 1 µM, 96 hours, relative to non-treated reference, read-out: Anti HBV Activity (conc µM)

| SMILES | inhibition at 1 µM [%] |
| --- | --- |
| O=C(Nc1ccc(F)c(F)c1)c1ccc2c(c1)S(=O)(=O)NC(c1nccs1)N2 (stereo not drawn) [Example E50, N-(3,4-difluorophenyl)-3-(thiazol-2-yl)-3,4-dihydro-2H-benzo[e][1,2,4]thiadiazine-7-carboxamide 1,1-dioxide] | > 50 |
| O=C(Nc1cc(F)c(F)c(F)c1)c1ccc2c(c1)S(=O)(=O)NC(c1cnc[nH]1)N2 (stereo not drawn) [Example E51, 3-(1H-imidazol-5-yl)-N-(3,4,5-trifluorophenyl)-3,4-dihydro-2H-benzo[e][1,2,4]thiadiazine-7-carboxamide 1,1-dioxide] | < 50 |
| O=C(Nc1cc(F)c(F)c(F)c1)c1ccc2c(c1)S(=O)(=O)NC(c1ccc(Cl)nc1)N2 (stereo not drawn) [Example E52, 3-(6-chloropyridin-3-yl)-N-(3,4,5-trifluorophenyl)-3,4-dihydro-2H-benzo[e][1,2,4]thiadiazine-7-carboxamide 1,1-dioxide] | > 50 |
| CC1(c2ccc(Cl)cn2)Nc2ccc(C(=O)Nc3cc(F)c(F)c(F)c3)cc2S(=O)(=O)N1 (stereo not drawn) [Example E53, 3-(5-chloropyridin-2-yl)-3-methyl-N-(3,4,5-trifluorophenyl)-3,4-dihydro-2H-benzo[e][1,2,4]thiadiazine-7-carboxamide 1,1-dioxide] | > 50 |
| O=C(Nc1cc(F)c(F)c(F)c1)c1ccc2c(c1)S(=O)(=O)N(CCO)CN2 [Example E62, 2-(2-hydroxyethyl)-N-(3,4,5-trifluorophenyl)-3,4-dihydro-2H-benzo[e][1,2,4]thiadiazine-7-carboxamide 1,1-dioxide] | < 50 |
| CC1Nc2ccc(C(=O)Nc3cc(F)c(F)c(F)c3)cc2S(=O)(=O)N1CCO (stereo not drawn) [Example E63, 2-(2-hydroxyethyl)-3-methyl-N-(3,4,5-trifluorophenyl)-3,4-dihydro-2H-benzo[e][1,2,4]thiadiazine-7-carboxamide 1,1-dioxide] | < 50 |
| O=C(Nc1ccc(F)c(F)c1)c1ccc2c(c1)S(=O)(=O)NC=N2 [Example E66, N-(3,4-difluorophenyl)-2H-benzo[e][1,2,4]thiadiazine-7-carboxamide 1,1-dioxide] | < 50 |
| CC1=Nc2ccc(C(=O)Nc3ccc(F)c(F)c3)cc2S(=O)(=O)N1 [Example E67, N-(3,4-difluorophenyl)-3-methyl-2H-benzo[e][1,2,4]thiadiazine-7-carboxamide 1,1-dioxide] | < 50 |
| O=C(Nc1cc(F)c(F)c(F)c1)c1cc2c(cc1F)N=CNS2(=O)=O [Example E68, 6-fluoro-N-(3,4,5-trifluorophenyl)-2H-benzo[e][1,2,4]thiadiazine-7-carboxamide 1,1-dioxide] | < 50 |
| NC1=Nc2ccc(C(=O)Nc3cc(F)c(F)c(F)c3)cc2S(=O)(=O)N1 [Example E69, 3-amino-N-(3,4,5-trifluorophenyl)-2H-benzo[e][1,2,4]thiadiazine-7-carboxamide 1,1-dioxide] | < 50 |
| CC(=O)NC1=Nc2ccc(C(=O)Nc3cc(F)c(F)c(F)c3)cc2S(=O)(=O)N1 [Example E70, 3-acetamido-N-(3,4,5-trifluorophenyl)-2H-benzo[e][1,2,4]thiadiazine-7-carboxamide 1,1-dioxide] | < 50 |
| CN1C=NS(=O)(=O)c2cc(C(=O)Nc3cc(F)c(F)c(F)c3)c(F)cc21 [Example E73, 6-fluoro-4-methyl-N-(3,4,5-trifluorophenyl)-4H-benzo[e][1,2,4]thiadiazine-7-carboxamide 1,1-dioxide] | < 50 |
| O=C1Nc2ccc(C(=O)Nc3ccc(F)c(F)c3)cc2S(=O)(=O)N1 [Example E74, N-(3,4-difluorophenyl)-3-oxo-3,4-dihydro-2H-benzo[e][1,2,4]thiadiazine-7-carboxamide 1,1-dioxide] | < 50 |
| O=C1Nc2ccc(C(=O)Nc3cc(F)c(F)c(F)c3)cc2S(=O)(=O)N1 [Example E75, 3-oxo-N-(3,4,5-trifluorophenyl)-3,4-dihydro-2H-benzo[e][1,2,4]thiadiazine-7-carboxamide 1,1-dioxide] | < 50 |
| CN1C(=O)Nc2ccc(C(=O)Nc3cc(F)c(F)c(F)c3)cc2S1(=O)=O [Example E76, 2-methyl-3-oxo-N-(3,4,5-trifluorophenyl)-3,4-dihydro-2H-benzo[e][1,2,4]thiadiazine-7-carboxamide 1,1-dioxide] | > 50 |
